Assay results published in patent US9642833B2, “Vitamin C and vitamin K, and compositions thereof for treatment of osteolysis or prolongation of prosthetic implant” (IC-MEDTECH CORPORATION, priority 2009, dated 2017).

Test system: HS68 fibroblasts
Test: MTT cytotoxicity against human dermal fibroblasts
Type: cell-based
Conditions: for CD50: vitamins alone; for VK3 CD50: in combination with Sodium L-Ascorbate

Row | Compound | VC CD50 (in combination with VK3, ratio of vitamin C to vitamin K3 100, incubation 1 day) [µM] | VC CD50 (in combination with VK3, ratio of vitamin C to vitamin K3 100, incubation 2 days) [µM] | VC CD50 (in combination with VK3, ratio of vitamin C to vitamin K3 100, incubation 3 days) [µM] | VC CD50 (in combination with VK3, ratio of vitamin C to vitamin K3 200, incubation 1 day) [µM] | VC CD50 (in combination with VK3, ratio of vitamin C to vitamin K3 200, incubation 2 days) [µM] | VC CD50 (in combination with VK3, ratio of vitamin C to vitamin K3 200, incubation 3 days) [µM] | CD50 (incubation 1 day) [µM] | CD50 (incubation 2 days) [µM] | CD50 (incubation 3 days) [µM] | VK3 CD50 (ratio of vitamin C to vitamin K3 100, incubation 1 day) [µM] | VK3 CD50 (ratio of vitamin C to vitamin K3 100, incubation 2 days) [µM] | VK3 CD50 (ratio of vitamin C to vitamin K3 100, incubation 3 days) [µM] | VK3 CD50 (ratio of vitamin C to vitamin K3 200, incubation 1 day) [µM] | VK3 CD50 (ratio of vitamin C to vitamin K3 200, incubation 2 days) [µM] | VK3 CD50 (ratio of vitamin C to vitamin K3 200, incubation 3 days) [µM]
1 | O=C1O[C@H]([C@@H](O)CO)C([O-])=C1O.[Na+] [Sodium L-Ascorbate, sodium L-ascorbate] | 458 | 471 | 471 | 466 | 467 | 397 | 1468 | 1245 | 1185 |  |  |  |  |  | 
2 | CC1=CC(=O)c2ccccc2C1=O [VK3, vitamin K3] |  |  |  |  |  |  | 18.7 | 19.0 | 18.7 | 4.7 | 4.7 | 4.7 | 2.3 | 2.3 | 2.0
